The numbers were not newly measured in patent publication US20030220374A1, “Compositions and methods of treatment involving peroxisome proliferator-activated receptor-gamma agonists and cyclooxygenase-2 selective inhibitors” (Pharmacia Corporation, priority 2002, published 2003), which cites them from elsewhere.

Each structure is given as a SMILES string. pEC50: −log10 of the molar value.

In general, pEC50 refers to −log10 of the EC50, conventionally taken in molar units.

One data set concerns the target T1, PPARγ (Homo sapiens, UniProt P37231).
T1 sequence (P37231 1-505): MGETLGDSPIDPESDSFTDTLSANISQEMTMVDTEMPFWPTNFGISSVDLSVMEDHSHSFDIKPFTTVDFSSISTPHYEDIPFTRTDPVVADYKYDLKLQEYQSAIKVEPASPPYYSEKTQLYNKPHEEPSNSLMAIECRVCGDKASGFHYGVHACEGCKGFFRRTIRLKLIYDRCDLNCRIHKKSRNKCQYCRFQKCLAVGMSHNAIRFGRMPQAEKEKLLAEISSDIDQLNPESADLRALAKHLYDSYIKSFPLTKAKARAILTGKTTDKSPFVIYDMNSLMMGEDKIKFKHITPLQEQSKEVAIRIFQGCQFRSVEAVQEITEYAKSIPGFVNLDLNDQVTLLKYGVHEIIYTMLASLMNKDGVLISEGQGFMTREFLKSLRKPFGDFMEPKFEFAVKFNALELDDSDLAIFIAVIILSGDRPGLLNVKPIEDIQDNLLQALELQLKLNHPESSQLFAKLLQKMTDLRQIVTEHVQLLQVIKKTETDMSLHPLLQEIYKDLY

Data set [1] deals with hepatocellular cancer cells.
The subject of data set [2] is vascular smooth muscle cell.
A further data set has as its system human carotid arteries. Conditions: in vivo.
A further data set deals with human lung cancer cells. Conditions: through the induction of apoptosis.
For data set [3], the system named is fibroblast growth factor-induced corneal angiogenesis. As to conditions: rats.

With `COc1ccc2nc(COc3ccc(CC4SC(=O)NC4=O)cc3)n(C)c2c1` (stereo not shown) [CS-011, CI-1037], the pEC50 at PPARγ is 6.80. With `CCCCC/C=C\C=C1\C(=O)C=C[C@@H]1C/C=C\CCCC(=O)O` [15-deoxy-Δ^12,14-prostaglandin J2, 11-oxo-prosta-5Z,9,12E,14Z-tetren-1-oic acid], the “growth inhibition of hepatocellular cancer cells” value in data set [1] was “marked growth inhibition”.

In the case of `Cc1c(C)c2c(c(C)c1O)CCC(C)(COc1ccc(CC3SC(=O)NC3=O)cc1)O2` (single isomer, unassigned; (+)) [Troglitazone, (+)-5-[[4-[(3,4-dihydro-6-hydroxy-2,5,7,8-tetramethyl-2H-1-benzopyran-2-yl)methoxy]phenyl]methyl]-2,4-thiazolidinedione], the “vascular smooth muscle cell growth” value in data set [2] is listed as “inhibits”. In addition, the “hyperplasia of human carotid arteries” value in the data set on human carotid arteries is given as “decreases”. Besides, in data set [1], the “growth inhibition of hepatocellular cancer cells” value is listed as “marked growth inhibition”. Also, the “growth of human lung cancer cells” value in the data set with human lung cancer cells is recorded as “inhibited the growth”. `Cc1ccc(-c2cc(C(F)(F)F)nn2-c2ccc(S(N)(=O)=O)cc2)cc1` [Celecoxib, 4-[5-(4-methylphenyl)-3-(trifluoromethyl)-1H-pyrazol-1-yl]benzenesulfonamide]: in data set [3], the “inhibition of fibroblast growth factor-induced corneal angiogenesis” value is “potent inhibition”.
